Activity calls are given as the source filed them. The rule behind the calls is not given here.
Experiments:
HeLa [1] = test: Cytotoxicity against human HeLa cells assessed as cell viability at 120 uM after 3 days by CellTiter96 Aqueous One Solution assay (reference value: 100%); assay type: functional; settings: 72 h, read-out: Activity
HeLa [2] = test: Cytotoxicity against human HeLa cells assessed as cell viability at 120 uM after 3 days by CellTiter96 Aqueous One Solution assay; assay type: functional, cell-based
DNA topoisomerase 1 = biological target: T1, DNA topoisomerase 1 (Homo sapiens, UniProt P11387); test: Inhibition of human topoisomerase 1 activity assessed as DNA triplex formation and presence of supercoiled DNA by microplate assay
T1 sequence (P11387 whole entry): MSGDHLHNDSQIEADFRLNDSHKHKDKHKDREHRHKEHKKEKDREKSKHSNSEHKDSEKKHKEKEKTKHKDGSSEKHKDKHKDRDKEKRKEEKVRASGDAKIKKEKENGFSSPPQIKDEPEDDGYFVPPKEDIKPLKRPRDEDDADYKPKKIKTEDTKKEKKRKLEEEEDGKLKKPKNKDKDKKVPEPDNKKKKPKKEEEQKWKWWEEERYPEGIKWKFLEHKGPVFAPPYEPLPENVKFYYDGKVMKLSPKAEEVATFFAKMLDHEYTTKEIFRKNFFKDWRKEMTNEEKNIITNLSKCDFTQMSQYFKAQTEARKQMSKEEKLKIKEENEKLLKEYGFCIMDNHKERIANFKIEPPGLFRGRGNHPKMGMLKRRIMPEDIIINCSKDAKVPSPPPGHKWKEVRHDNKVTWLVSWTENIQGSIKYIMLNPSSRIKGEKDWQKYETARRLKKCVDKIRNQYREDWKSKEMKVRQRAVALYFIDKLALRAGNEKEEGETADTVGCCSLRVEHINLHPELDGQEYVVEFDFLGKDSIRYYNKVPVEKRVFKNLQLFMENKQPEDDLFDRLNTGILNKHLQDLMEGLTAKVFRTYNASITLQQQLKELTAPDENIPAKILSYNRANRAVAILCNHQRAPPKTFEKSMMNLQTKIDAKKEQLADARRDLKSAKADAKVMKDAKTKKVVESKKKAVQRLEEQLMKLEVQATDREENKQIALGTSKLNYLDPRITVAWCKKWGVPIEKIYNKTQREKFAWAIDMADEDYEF

Escherichia coli = test: Inhibition of Escherichia coli topoisomerase assessed as bacterial proliferation at 200 uM after 24 hrs by visual inspection assay
[3] = biological target: T2, ATP-dependent translocase ABCB1 (Homo sapiens, UniProt P08183); test: Inhibition of P-glycoprotein 1 in human HeLa cells assessed as intracellular accumulation of Hoechst 33342 dye after 30 mins by fluorescence microscopic analysis; assay type: cell-based
T2 sequence (P08183 whole entry): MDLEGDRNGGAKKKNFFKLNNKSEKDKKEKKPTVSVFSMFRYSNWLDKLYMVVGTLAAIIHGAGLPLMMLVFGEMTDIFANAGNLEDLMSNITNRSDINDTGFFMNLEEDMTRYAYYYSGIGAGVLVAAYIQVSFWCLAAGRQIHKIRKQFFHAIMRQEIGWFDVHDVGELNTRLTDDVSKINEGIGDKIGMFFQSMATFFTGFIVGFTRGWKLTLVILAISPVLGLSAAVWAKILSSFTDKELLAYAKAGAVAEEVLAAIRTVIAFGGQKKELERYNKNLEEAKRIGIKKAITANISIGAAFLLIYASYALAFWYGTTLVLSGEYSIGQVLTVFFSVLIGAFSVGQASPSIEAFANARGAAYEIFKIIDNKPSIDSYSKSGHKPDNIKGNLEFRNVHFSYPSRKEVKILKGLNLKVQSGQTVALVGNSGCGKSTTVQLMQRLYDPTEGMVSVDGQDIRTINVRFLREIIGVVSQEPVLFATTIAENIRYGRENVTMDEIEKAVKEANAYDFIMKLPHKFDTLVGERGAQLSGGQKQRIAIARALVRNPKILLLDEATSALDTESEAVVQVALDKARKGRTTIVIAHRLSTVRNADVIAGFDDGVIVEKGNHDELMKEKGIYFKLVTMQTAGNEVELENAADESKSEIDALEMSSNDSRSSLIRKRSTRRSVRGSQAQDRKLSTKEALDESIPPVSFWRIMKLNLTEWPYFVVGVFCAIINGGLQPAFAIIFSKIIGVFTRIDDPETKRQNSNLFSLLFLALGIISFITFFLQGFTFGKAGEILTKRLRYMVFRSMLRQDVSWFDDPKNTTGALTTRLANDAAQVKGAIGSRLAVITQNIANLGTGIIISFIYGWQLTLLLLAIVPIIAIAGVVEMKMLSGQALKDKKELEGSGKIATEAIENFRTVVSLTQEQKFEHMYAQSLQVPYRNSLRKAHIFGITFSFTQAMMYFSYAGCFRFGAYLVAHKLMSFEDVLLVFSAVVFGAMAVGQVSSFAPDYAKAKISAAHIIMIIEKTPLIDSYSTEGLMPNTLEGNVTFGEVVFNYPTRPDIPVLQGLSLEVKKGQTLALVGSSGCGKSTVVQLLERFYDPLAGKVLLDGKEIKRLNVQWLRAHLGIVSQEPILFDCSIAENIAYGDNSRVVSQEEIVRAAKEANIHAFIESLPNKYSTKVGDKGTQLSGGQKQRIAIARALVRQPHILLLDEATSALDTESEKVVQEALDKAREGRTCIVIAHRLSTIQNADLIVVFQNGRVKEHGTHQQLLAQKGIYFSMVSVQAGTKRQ

[4] = biological target: T2, ATP-dependent translocase ABCB1; test: Inhibition of human P-glycoprotein 1 ATPase activity assessed as remaining ATP level by luminescence analysis
HeLa [5] = test: Effect on apoptosis in human HeLa cells assessed as cell morphology and extracellular membrane after 48 hrs; assay type: functional, cell-based

Question: For `CC(=O)c1ccc(OCC(O)CN2CCN(C(c3ccccc3)c3ccccc3)CC2)cc1` (centres undefined), which viability at 120 µM (HeLa [1]) is on record?
Answer: 37%

Question: For `O=c1c(-c2ccc3c(c2)OCCO3)coc2cc(OC3OC(CO)C(O)C(O)C3O)ccc12` (centres undefined), which viability at 120 µM (HeLa [1]) is on record?
Answer: 82%

Question: For `CO[C@@H]1O[C@H](CO)[C@H](O)[C@H](O)[C@H]1O`, which Activity (HeLa [2]) is on record?
Answer: inactive

Question: Which Activity (HeLa [2]) does the source give for `CC(=O)OCC(OC(C)=O)C(OC(C)=O)C(OC(C)=O)C(OC(C)=O)C(OC(C)=O)OC(C)=O` (centres undefined) here?
Answer: inactive

Question: What does the source list for `CN(C=C(C#N)C#N)CC(O)C(O)C(O)C(O)CO` (centres undefined)?
Answer: IC50 (DNA topoisomerase 1): 47.5 µM; inhibition (Escherichia coli): inactive; Activity (HeLa [2]): inactive

Question: For `CC(=O)OC[C@H](OC(C)=O)[C@H](OC(C)=O)[C@@H](CNC(=O)c1ccc(C)c(C)c1)OC(C)=O`, which IC50 [3] is on record?
Answer: 15.5 µM

Question: What about the IC50 [4] of the same compound?
Answer: 28 µM

Question: What about the Activity (HeLa [5]) of the same compound?
Answer: inactive

Question: What about the Activity (HeLa [2]) of the same compound?
Answer: inactive

Question: How did the Activity (HeLa [2]) turn out when `CC(=O)OCC(OC(C)=O)C(OC(C)=O)C(O)C1SCC(C(=O)N(C)C)N1C(C)=O` (centres undefined) was run?
Answer: inactive

Question: What does the source list for `CC(=O)OCC1OC(Sc2ccccc2)C(OC(C)=O)C(OC(C)=O)C1OC(C)=O` (centres undefined)?
Answer: IC50 [3]: 15.4 µM; IC50 [4]: 37 µM; Activity (HeLa [5]): inactive; viability at 120 µM (HeLa [1]): 87%

Question: For `NC(=O)c1ncn([C@@H]2O[C@H](CO)[C@@H](O)[C@H]2O)n1` [RIBAVIRIN], which IC50 (DNA topoisomerase 1) is on record?
Answer: 65.9 µM

Question: What about the inhibition (Escherichia coli) of the same compound?
Answer: inactive

Question: With `CCSC(SCC)C(O)C(O)C(O)C(O)CO` (centres undefined) as the compound, how does the Activity (HeLa [2]) read?
Answer: inactive
